Results on one compound are retold here after US20160185682A1, “NITRIFICATION INHIBITOR COMPOSITIONS AND METHODS FOR PREPARING THE SAME” (Dow AgroSciences LLC, priority 2014, published 2016).

Series [1] is classed as physicochemical. The text has this: (§1) In some embodiments of the present disclosure, in order to measure the diffusion of nitrification inhibitors through volatilization barriers and, therefore, provide diffusion constants to estimate the ultimate loss of nitrification inhibitors to volatilization, Fourier transform infrared spectroscopy operating in attenuated total reflectance mode (“ATR-FTIR”) can be employed to probe diffusion of nitrification inhibitors, such as, for example, nitrapyrin, through polymeric materials.
(§2) A Nicolet 4700 Fourier transform infrared spectrometer (“FTIR”) with SCFGG using attenuated total reflectance (“ATR”) accessory (“Specac”) was utilized in the studies presented herein. Nitrapyrin technical grade manufactured by Dow AgroSciences LLC was used in some of the experiments presented herein. […]
(§3) Kollidon VA64 was purchased as a vinyl pyrrolidone/vinyl acetate 60/40 copolymer from Sigma Aldrich. […] Film thickness was measured using a Dektak profilometer (Veeco). […]
(§4) Films were allowed to equilibrate in the FTIR chamber for thirty minutes before the experiments were started. […] A single-beam spectrum was acquired of the film for use as a background spectrum, after which absorbance spectra were continuously recorded throughout the experiment. Peak heights were determined using a macro and data were fit according to the model as described below. […]

For series [2] the following is noted: at 230 Celsius; cited from earlier work.
A short description of series [3]: ATR-FTIR diffusion of nitrapyrin through polymer film, diffusion constant fitted by Fick's second law model. The format is physicochemical.
Description: as §1, §2, §3, §4

For the compound `Clc1cccc(C(Cl)(Cl)Cl)n1` [nitrapyrin, 2-chloro-6-(trichloromethyl)pyridine], in series [1], the “diffusion constant for nitrapyrin through polymer film (printed as 'partition coefficient')” value is 10^−3-10^−2 μm^2/s. In addition, the vapor pressure in series [2] is 2.8×10^−3 mm Hg. Further, the “diffusion profile of nitrapyrin through film” value in series [3] (Kollidon VA64 film, 30 μm, curve not well-fitting a standard diffusion model) was “slow through the film before it rapidly equilibrates”. Moreover, the diffusion constant in series [3] (Polyvinyl pyrollidone (K90) film) is given as 0.1-1 μm^2/s.
